Measured values reported in patent US11535670B2, “Combination therapies of HDAC inhibitors and PD-L1 inhibitors” (HUYABIO International, LLC, priority 2016, dated 2022).

Tests used:
[1] = system: MC38 murine colon carcinoma; experiment: Example 3: second-line therapy of MC38 tumors progressing after first-line PD-1 inhibitor antibody, response rates; type: in vivo, C57BL/6 mice; conditions: second-line after failing PD-1 inhibitor antibody; HBI-8000 50 mg/kg p.o. qd×21; antibodies 5 mg/kg i.p. biwk×2 (Table 4: biwk × 3)
Source text: In this model, a proportion of the animals treated 1st line with the PD-1 checkpoint inhibitor antibody experience complete tumor regression. However, a similar proportion of animals treated 1st line with the PD-1 inhibitor antibody experience rapid tumor progression. The balance of the animals treated in this way experience slow tumor progression or stable disease, which is a result which approximates the situation in a number of human cancer patients receiving PD-1 inhibitor antibody therapy, i.e., they experience a transient partial response, including stable disease, but then develop resistance and rapidly progress, failing PD-1 inhibitor antibody therapy. In this example, the efficacy of HBI-8000 (DZ1) as a second-line therapy, alone and in combination with PDL-1 inhibitor antibody 10F.9G2 (anti-PDL-1), was evaluated for the ability to cause tumor growth delay (TGD) in animals which tumors progressed following PD-1 inhibitor antibody first line of therapy in the MC38 murine colon carcinoma syngeneic model in immunocompetent C57BL/6 mice.
Female C57BL/6 mice bearing subcutaneous MC38 tumors (mean tumor volume: 114 mm^3 when treatment began) were treated with a first line of therapy of PD-1 inhibitor antibody treatment, administered intraperitoneally (i.p.) at 5 mg/kg, twice weekly for two weeks (biwk×2). […] Dosing began on Dl, which represented the day of recruitment and varied among mice (this was normalized for each group). The second line therapies were as follows. Vehicle was administered orally (p.o.). HBI-8000 was administered p.o. at 50 mg/kg. PD-1 inhibitor antibody and anti-PDL-1 were each administered intraperitoneally (i.p) at 5 mg/kg. Group 1 mice served as controls and received 0.2% carboxymethyl cellulose: 0.1% Tween 80 in deionized water (vehicle) once daily for twenty-one days (qd×21). Group 2 received HBI-8000 qd×21. Group 3 received a second course of PD-1 inhibitor antibody biwk×2. Group 4 received HBI-8000 qd×21 and PD-1 inhibitor antibody biwk×2. Group 5 received anti-PDL-1 biwk×2. Group 6 received HBI-8000 qd×21 and anti-PDL-1 biwk×2. […]

[2] = oral administration; cited from earlier work
HDAC 2 = HDAC 2 (Homo sapiens, UniProt Q92769); conditions: cited from earlier work
HDAC 2, sequence (Q92769 whole entry): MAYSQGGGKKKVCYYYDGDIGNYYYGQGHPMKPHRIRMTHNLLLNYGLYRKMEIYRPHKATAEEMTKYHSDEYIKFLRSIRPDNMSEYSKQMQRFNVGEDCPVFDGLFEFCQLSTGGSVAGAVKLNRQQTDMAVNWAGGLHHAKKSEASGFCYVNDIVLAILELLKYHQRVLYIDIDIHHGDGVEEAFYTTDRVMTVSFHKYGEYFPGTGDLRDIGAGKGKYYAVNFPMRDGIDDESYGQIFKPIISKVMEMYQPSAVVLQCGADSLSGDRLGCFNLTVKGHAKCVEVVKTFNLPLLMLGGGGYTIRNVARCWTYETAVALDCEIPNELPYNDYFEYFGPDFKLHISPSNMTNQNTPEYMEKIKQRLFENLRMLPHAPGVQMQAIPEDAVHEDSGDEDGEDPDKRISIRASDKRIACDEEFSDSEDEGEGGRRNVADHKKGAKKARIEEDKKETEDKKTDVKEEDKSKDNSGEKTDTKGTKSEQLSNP

HDAC 10 = molecular target: T1, HDAC 10 (Homo sapiens, UniProt Q969S8); conditions: cited from earlier work
T1 sequence (Q969S8 1-669): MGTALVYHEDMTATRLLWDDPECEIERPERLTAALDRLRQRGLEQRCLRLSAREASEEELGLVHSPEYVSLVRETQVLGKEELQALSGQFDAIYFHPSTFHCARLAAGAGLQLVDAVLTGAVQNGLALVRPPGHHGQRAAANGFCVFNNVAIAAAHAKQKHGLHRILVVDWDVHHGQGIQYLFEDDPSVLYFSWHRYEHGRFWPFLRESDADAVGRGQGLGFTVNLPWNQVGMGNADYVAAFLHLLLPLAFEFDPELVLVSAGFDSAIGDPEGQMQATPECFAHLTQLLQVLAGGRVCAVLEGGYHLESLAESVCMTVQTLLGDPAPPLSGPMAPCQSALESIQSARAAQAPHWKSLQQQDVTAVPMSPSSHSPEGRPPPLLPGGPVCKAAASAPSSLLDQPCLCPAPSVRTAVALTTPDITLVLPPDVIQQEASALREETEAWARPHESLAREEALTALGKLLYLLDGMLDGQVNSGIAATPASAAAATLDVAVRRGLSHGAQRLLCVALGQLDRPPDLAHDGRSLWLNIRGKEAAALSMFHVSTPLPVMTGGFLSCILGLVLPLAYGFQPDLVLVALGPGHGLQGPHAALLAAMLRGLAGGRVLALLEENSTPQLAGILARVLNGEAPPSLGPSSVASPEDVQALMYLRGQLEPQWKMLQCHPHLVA

HDAC 3 = HDAC 3 (Homo sapiens, UniProt O15379); conditions: cited from earlier work
HDAC 3, sequence (O15379 whole entry): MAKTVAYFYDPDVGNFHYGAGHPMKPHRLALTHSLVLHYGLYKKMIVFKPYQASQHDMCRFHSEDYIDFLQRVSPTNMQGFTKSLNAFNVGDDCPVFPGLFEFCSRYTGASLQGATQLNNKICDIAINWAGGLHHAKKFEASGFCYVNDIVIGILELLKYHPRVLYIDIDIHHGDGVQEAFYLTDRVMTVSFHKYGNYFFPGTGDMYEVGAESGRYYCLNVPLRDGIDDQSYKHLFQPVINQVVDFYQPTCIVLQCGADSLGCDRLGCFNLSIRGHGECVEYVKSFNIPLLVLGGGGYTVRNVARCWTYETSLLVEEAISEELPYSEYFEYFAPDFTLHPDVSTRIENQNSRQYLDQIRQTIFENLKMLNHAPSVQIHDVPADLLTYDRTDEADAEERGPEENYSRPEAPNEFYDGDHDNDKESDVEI
HDAC 3, sequence (Q9Y618 395-489 partner limits assumed): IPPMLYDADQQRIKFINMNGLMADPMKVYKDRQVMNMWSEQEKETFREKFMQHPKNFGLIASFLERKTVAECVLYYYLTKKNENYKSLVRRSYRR

Structure (SMILES): Nc1cc(F)ccc1NC(=O)c1ccc(CNC(=O)/C=C/c2cccnc2)cc1 [HBI-8000, N-(2-amino-4-fluorophenyl)-4-[[[(2E)-1-oxo-3-(3-pyridinyl)-2-propen-1-yl]amino]methyl]benzamide]
- Response rate: CR (complete response) [1]: 20%
- Response rate: NR (no response) [1]: 40%
- Response rate: PR (partial response) [1]: 40%
- t1/2 [2]: about 17 hours
- inhibition of HDAC 2 (HDAC 2): low nanomolar concentrations
- activity at HDAC 2 compared with Entinostat (HDAC 2; versus Entinostat): more active than Entinostat
- inhibition of HDAC 10 (HDAC 10): low nanomolar concentrations
- activity at HDAC 10 compared with Entinostat (HDAC 10; versus Entinostat): more active than Entinostat
- inhibition of HDAC 3 (HDAC 3): low nanomolar concentrations
- activity at HDAC 3 compared with Entinostat (HDAC 3; versus Entinostat): more active than Entinostat
